Assay results reported in patent US12622890B2, “Use of the active compound in the prevention or treatment of ovarian dysfunction diseases” (INSTITUTE OF BIOPHYSICS, CHINESE ACADEMY OF SCIENCES, priority 2022, dated 2026).

Experiments:
POI model mice = test: Estrous cycle observation by vaginal smear cytology in POI model mice; assay type: in vivo
Experimental: Cytological observation of vaginal smear was performed daily.
The vagina of mice was exposed, and about 30 μl of normal saline was dripped into the vagina, gently aspirated onto the slide, and observed under the microscope. Staining was performed when necessary, fixed with 95% ethanol for 10 minutes, stained with hematoxylin in aqueous solution for 5-8 minutes, washed with running water for color separation, and then stained with eosin for 3 minutes. After drying. the slices were sealed with neutral gum.
The vagina of mice was exposed, and about 30 μl of normal saline was dripped into the vagina, gently aspirated onto the slide, and observed under the microscope. Staining was performed when necessary, stained with hematoxylin in aqueous solution for several minutes after drying, washed with running water for color separation, and then stained with alchhol eosin for several seconds. The slices were sealed with neutral gum.
During the estrous cycle, a series of histological and physiological changes occur in the reproductive and endocrine systems of mice. According to these changes, the estrous cycle can be divided into proestrous (P), estrous (E), metestrum (M) and diestrum (D). • 1. Observation of estrous cycle in mice of Example 1
After modeling and treatment, there were 6 mice left in the normal saline group, 6 mice left in the sodium fumarate treatment group, 7 mice left in the hyodeoxycholic acid group, and 7 mice left in the sodium fumarate and hyodeoxycholic acid combination group. […] The estrous cycle was divided into four periods (P: proestrous; E: estrous period; M: metestrum; D: diestrum) for vaginal smear cytological observation, the results are shown in FIG. 3.
The estrous cycle of mice was plotted according to the cytological results of vaginal smears observed for 12 consecutive days, and the results are shown in FIG. 4. The estrous cycle of mice is about 4 to 5 days, which is divided into four periods alternately. […] The estrous cycle of 4 mice was recovered in sodium fumarate treatment group. The estrous cycle of 3 mice was recovered in HDCA group. The estrous cycle of 6 mice was recovered in group treated with SF and HDCA.

ovarian tissues = test: RNA transcription level sequencing of ovarian tissues, differentially expressed genes; assay type: in vivo, mice; details: ovarian tissue RNA sequencing, FC>2, Q<0.05
Experimental: Mice were sacrificed after various treatments, and ovarian tissues were taken, snap-frozen in liquid nitrogen, stored at −80° C., and sent to Annoroad for RNA transcription level sequencing. Bioinformatics analysis and mapping were performed on the sequencing results. […] The differential genes of the three treatment groups were intersectioned. […] These differential gene sets were then subjected to Gene Ontology function (GO) enrichment (FC>2, Q<0.05) (FIG. 16) and signaling pathway (KEGG) analysis mapping (FIG. 17), respectively.

POI mice = test: Serum FSH level in POI mice; assay type: in vivo; details: for FSH: serum, after 12 days 100 mg/kg/d oral
Source text: Biomarkers mentioned herein, such as follicle stimulating hormone (FSH), estrogen (e.g., E2), and superoxide dismutase (SOD), malondialdehyde (MDA), relative reactive oxygen species (ROS), and lactate dehydrogenase (LDH), etc., can be detected using methods commonly known in the field. Detection methods typically cover methods that quantify the level of a biomarker in a sample (quantitative methods). Which of the following methods are suitable for qualitative and/or quantitative detection of biomarkers is generally known to those skilled in the field. Samples can be conveniently measured, for example for proteins using immunoassays such as ELISA, RIA, etc., which are commercially available.
(§1) After 12 days of administration, half of the mice in each group were sacrificed, and their blood was collected and kept still. The serum was separated after centrifugation at 4500 rpm and stored in a refrigerator at −80° C. for future use to measure levels of follicle stimulating hormone, estrogen, and the indexes of oxidative stress such as superoxide dismutase (SOD) and malondial dehyde (MDA).
as §1, with “kept in” for “kept”, “levals” for “levels”, “malondialdehyde” for “malondial dehyde”
• 1. Hormone levels in mice blood of Example 1 are measured in this embodiment.

[1] = Example 1, during drug administration, FIG. 4B

C[C@H](CCC(=O)O)[C@H]1CC[C@H]2[C@@H]3C[C@H](O)[C@@H]4C[C@H](O)CC[C@]4(C)[C@H]3CC[C@]12C [HDCA, hyodeoxycholic acid, reference compound]
Effect on mice with premature ovarian failure (conclusion from estrous cycle) (POI model mice; Example 1): preventive and therapeutic effects | Average rate of diestrum (D) in estrous cycle (POI model mice; [1]): 39.29% | Average rate of estrous stage (E) in estrous cycle (POI model mice; [1]): 22.62% | Average rate of metestrum (M) in estrous cycle (POI model mice; [1]): 14.29% | Average rate of proestrous (P) in estrous cycle (POI model mice; [1]): 23.81% | Number of mice with estrous cycle recovered (POI model mice; Example 1, 12 days observation, 6 SF, 7 HDCA, 7 SF and HDCA mice left): 3 mice | Number of genes down-regulated compared with the control group (ovarian tissues): 4749 genes | Number of genes up-regulated compared with the control group (ovarian tissues): 1898 genes | Serum FSH level compared with the normal saline group (POI mice; Example 1, FIG. 6): decreasing trend | Serum FSH level compared with the normal saline group (POI mice; Example 2, FIG. 8, not statistically significant): certain decreasing trend | FSH (POI mice; Example 1 POI mice): 4.85 ± 2.34 mIU/mL | FSH (POI mice; Example 2 POI mice): 1.65 ± 0.76 mIU/mL
